# Non-standard residues stand in square brackets, D forms with d. No end group written: not given here. Ahx = NCCCCCC(=O)O; βAla = NCCC(=O)O
# Assays:
# dystrophin exon 23 = assay: Exon skipping in differentiated mouse H2K mdx myotubes (nested RT-PCR, densitometry); format: cell-based; details: Example 5, conjugate 0.125 to 2.0 μM, no transfection agent
# Description: The exon skipping potential of Pip6-PMO conjugates was evaluated in differentiated mouse H2K mdx myotubes in the absence of any transfection agent (FIG. 1) at concentrations ranging from 0.125 μM to 1 μM. […] In the case of Pip6 sequences, the flanking arginine-rich sequences are identical (with the exception of Pip6e, which is identical except for one arginine immediately preceding the core which is displaced into the second position of the core). […] Note that we have previously shown that major changes in in vitro exon skipping activities are correlated instead with the total numbers of arginine residues [Saleh, A. F., et al., Synthesis and splice-redirecting activity of branched, arginine-rich peptide dendrimer conjugates of peptide nucleic acid oligonucleotides. Bioconjug Chem, 2010. 21(10): p. 1902-11.].
# H2K mdx myotubes are derived from H2K mdx myoblasts obtained from the EDL muscle of a male H2K mdx f2 mouse. The cells are dystrophin deficient and conditionally immortal due to thermolabile simian virus 40 large tumor antigen (tsA58) expression. The myoblasts proliferate at 33° C. (10% CO2) in rich culture and differentiate into myotubes at 37° C. in media with horse serum.
# H2K mdx myotubes were prepared and incubated with peptide-PNA and peptide-PMO conjugates in the absence of any transfection agent by the methods described previously (Wang, Q, Yin, H, et aL (2010) In vitro evaluation of novel antisense oligonucleotides is predictive of in vivo exon skipping activity for Duchenne muscular dystrophy) but with minor variations.
# Myotubes were obtained from confluent H2K mdx cells seeded in gelatine coated 24-well plates following 2 days of serum deprivation (DMEM with 5% horse serum). The conjugates were incubated with myotubes for 4 h in 0.5 mL OptiMEM and then replaced by 1 mL of DMEM/5% horse serum media for further incubation. After 20 h myotubes were washed twice with PBS and total RNA was extracted with 0.5 mL of TRI Reagent (Sigma, UK). RNA preparations were treated with RNAse free DNAse (2U) and Proteinase K ([…]) prior to RT-PCR analysis. RT-PCR was carried out in 25 μL with 1 μg RNA template using SuperScript III One-Step RTPCR System with Platinum Taq DNA polymerase (Invitrogen) primed by forward primer 5′CAG AAT TCT GCC AAT TGC TGAG3′ [SEQ ID NO:312] and reverse primer 5′TTC TTC AGC TTG TGT CAT CC3′ [SEQ ID NO:313]. The initial cDNA synthesis was performed at 55° C. for 30 min followed by 30 cycles of 95° C. for 30 sec, 55° C. for 1 min and 68° C. for 80 sec. RT PCR product ([…]) was then used as the template for secondary PCR performed in 25 μL with 0.5 U Super TAQ polymerase (HT Biotechnologies) and primed by forward primer 5′CCCAGTCTACCACCCTATCAG AGC3′ [SEQ ID NO:314] and reverse primer 5′CCT GCC TTT AAG GCT TCC TT3′ [SEQ ID NO:315]. The cycling conditions were 95° C. for 1 min, 57° C. for 1 min and 72° C. for 80 sec for 25 cycles. Products were examined by 2% agarose gel and after scanning using Gene Tools Analysis Software (SynGene) the relative amount of exon 23 skipping was expressed as a percentage at a given concentration of conjugates averaged over duplicates of three experiments.
# H2K mdx myotubes were prepared and incubated with peptide-PMO conjugates in the absence of any transfection agent at concentrations of 0.125, 0.25, 0.5 and 1.0 μM by the method described previously [Yin, H., et al., Pip5 transduction peptides direct high efficiency oligonucleotide-mediated dystrophin exon skipping in heart and phenotypic correction in mdx mice. Mol Ther, 2011. 19(7): p. 1295-303.]. The products of nested RT-PCR from total isolated RNA were examined by electrophoresis on a 2% agarose gel. Quantification of Δ23 transcript levels was calculated using densitometry. […]
# dystrophin = assay: Western blot quantification of dystrophin protein in mdx mouse muscles; format: in vivo; details: lead PPMO comparison; 8 week old mdx mice, 12.5 mg/kg IV, 2 weeks
# Description: The RTPCR representative images (FIG. 34d) illustrate high exon skipping efficiency in all tissues analysed. This is better shown by Real Time PCR (qRT-PCR) results for the quadriceps, diaphragm and heart (FIG. 34c). The delta 23 transcript is normalised against ‘total dystrophin’ for each muscle group (n=3). […] Western blots (FIG. 34e) were performed on the tissues of each mouse and were quantified against a 50% and 10% C57BL10 control.
# Four and a half month old to 5½ month old mdx mice were used in these experiments (n=3). The experiments were carried out in the Biomedical Sciences Unit, University of Oxford according to procedures authorised by the UK Home Office. […]
# Control and treated muscle samples were homogenised in lysis buffer comprising 75 mM Tris-HCl (pH 6.5) and 10% Sodium Dodecyl Sulphate complemented with 5% 2-mercaptoethanol. […] Protein levels were measured by Bradford assay (Sigma) and quantified using BSA standards. […] Primary antibody was detected by binding of horseradish peroxidise-conjugated anti-mouse IgG with lumigen. Western blots were imaged (LiCOR Biosciences) and analysed using the Odyssey imaging system.
# The dystrophin protein level in PPMO treated mdx muscles was quantified by western blot analysis. The density of the dystrophin band was quantified using Licor software and vinculin was used as the loading control. […]
substance,measurement,setting,value
Pip9d2: Pip9 series peptide (SEQ ID Nos 320-328) conjugated to PMODMD (R[Ahx]RR[βAla]RFQILY[βAla]R[Ahx]R[βAla]; also: conjugated to PMO (PMODMD)),exon skipping activity (Δ23 skipping) in mdx muscle cells,dystrophin exon 23,high exon skipping activity
same,dystrophin protein level by western blot (vinculin loading control),dystrophin,negligible dystrophin production
